Measurements published in patent US5532380A, “R,R,S,S-2-nitroimidazole derivatives” (Pola Chemical Industries, Inc., priority 1992, dated 1996).
Converted amounts (≈) assume the structure as drawn. Where two headings read alike, the source gives them in different places.

Experiments:
[1] = Octanol-phosphate partition coefficient; assay type: physicochemical; settings: for partition coefficient: average of 1.4 times and 0.7 times; for partition coefficient / partition coefficient at 0.7 times the solubility in octanol / partition coefficient at 1.4 times the solubility in octanol: 1440 min; for partition coefficient at 0.7 times the solubility in octanol / partition coefficient at 1.4 times the solubility in octanol: octanol/0.2 mol phosphate buffer pH 7.4, 20° C.; for partitioning toward the octanol layer: octanol-phosphate, pH 7.4; for logD at 24 h: octanol/0.2 m phosphate buffer
Method: The partition coefficient in the octanol-phosphate buffer solution system, which is indicative of the degree of orientation toward nerve tissues, was determined. […] To the weighed samples 10 ml of 0.2 mol phosphate buffer (pH 7.4), defined in the Pharmacopoeia of Japan, and 10 ml of octanol were added. The mixtures were shaken for 24 hours at 20° C. under light shielding. Octanol and phosphate layers were partitioned to determine the absorbance of each layer. […] The partition coefficients obtained were averaged to determine the partition coefficient of each sample.

[2] = test system: breast carcinoma cell EMT6/KU; experiment: In vitro hypoxic cell sensitization effect (colony formation, gamma-ray); assay type: cell-based, Balb/c mouse; settings: 1 mM test compound, EMT6/KU hypoxic cells, ratio of radiation amounts without/with compound
Method: The degree of the hypoxic cell radiosensitization effects of optical isomers of the present invention as compared with the racemate was studied by the in vitro assay.
Specifically, the radiosensitization effects were investigated using breast carcinoma cell EMT6/KU derived from Balb/c mouse. A hypoxic cell suspension was prepared from MEM suspension-containing EMT6/KU cells at a concentration 4×10^5 cells/ml by adding the test compound to a final concentration of 1 mM, and gently shaking it under a nitrogen gas stream containing 5% CO2 for one hour at room temperature. Gamma-ray was irradiated to the suspension and a radiation-survival rate curve was developed by the colony formation method. The sensitization rate was determined from this radiation-survival rate curve by dividing (i) the amount of radiation which decreases the survival rate of the hypoxic cells by 1% when no test compound was added by (ii) the amount of radiation which decreases the survival rate of the hypoxic cells by 1% when the test compound was added.

[3] = test system: EMT6/KU-cancerated Balb/c mouse; experiment: In vivo-in vitro hypoxic cell sensitization effect (EMT6/KU tumour-bearing mouse, gamma-ray, colony forming method); settings: 200 mg/kg; 20 Gy gamma-ray 30 minutes thereafter
Method: The degree of the hypoxic cell radiosensitization effects of optical isomers of the present invention in in vivo-in vitro system was investigated in the same manner using the racemate as a control. Specifically, the radiosensitization effects were investigated using EMT6/KU-cancerated Balb/c mouse. 200 mg/kg of each test compound was administered and 20 Gy gamma-ray was irradiated 30 minutes thereafter. Carcinoma was extracted and treated with trypsin to prepare a cell suspension. The survival rate was determined by the colony forming method. A physiological saline solution was administered to the control.

[4] = Dissolution test (solubility); assay type: physicochemical; settings: for solubilities compared with SR-RS racemate: water and physiological saline
Method: Solubilities of SS, RR, SR, and RS isomers and SR-RS racemate in water and physiological saline were determined.

[5] = Acute toxicity test (LD50/14), i.v. or i.p.; settings: mouse, in vivo
Description: Test compounds, dissolved in physiological saline or a physiological saline solution containing 10% DMSO, were intravenously or intraperitoneally injected to ICR male mice, aged 5 weeks.

[6] = test system: hypoxic cell; settings: cited from earlier work
[7] = test system: male ICR mice; settings: mouse, in vivo, iv
Method: The acute toxicity was determined using groups of male ICR mice, aged 5 weeks, each group consisting of five mice. Test compounds were dissolved in physiological saline and administered by injection through caudal vein. The death-survival determination was made 14 days after the administration.

[8] = physiological saline, read-out: Solubility in physiological saline
[9] = pH 7.4, average of 1.4 times and 0.7 times, pH 7.4, 20° C., read-out: partition coefficient (converted)
[10] = pH 7.4, octanol/0.2 mol phosphate buffer pH 7.4, 20° C., 24 hours, 0.7 times, read-out: partition coefficient at 0.7 times the solubility in octanol (converted)
[11] = pH 7.4, octanol/0.2 mol phosphate buffer pH 7.4, 20° C., 24 hours, 1.4 times, read-out: partition coefficient at 1.4 times the solubility in octanol (converted)
[12] = water, read-out: Solubility in water
[13] = intravenously or intraperitoneally, ICR male mice, 14 days

Compound | Hypoxic cell sensitization rate [2] | Hypoxic cell survival rate [3] [%] | solubility [4, 8] [mg/mL] | logD at 24 h [1, 9] | logD at 24 h [1, 10] | logD at 24 h [1, 11] | solubilities compared with SR-RS racemate [4] | solubility [4, 12] [mg/mL] | further results
O=[N+]([O-])c1nccn1COC(CO)C(O)CO (single isomer, unassigned) [RS or SR isomer (rotation(+))] | 1.7 | 0.08 | 70 (≈ 283 mM) | – | – | – | – | – | partition coefficient ([1]; pH 7.4, 20° C.): 0.056; partition coefficient at 0.7 times the solubility in octanol ([1]; 24 hours, 0.7 times): 0.059; partition coefficient at 1.4 times the solubility in octanol ([1]; 24 hours, 1.4 times): 0.053
O=[N+]([O-])c1nccn1CO[C@H](CO)[C@H](O)CO [RR isomer, (1'R,2'R)-1-[(2', 3'-dihydroxy-1'-hydroxymethyl)propoxy]methyl-2-nitroimidazole] | 1.8 | 0.07 | 870 (≈ 3520 mM) | -1.6 | -1.59 | -1.62 | remarkably larger than that of SR-RS racemate | 740 (≈ 2990 mM) | partitioning toward the octanol layer [1]: less partitioned toward the octanol layer; LD50 at 336 h [5]: 6000 mg/kg
O=[N+]([O-])c1nccn1CO[C@H](CO)[C@@H](O)CO (relative stereo) [SR-RS racemate, (1'RS,2'SR)-1-[(2',3'-dihydroxy-1' -hydroxymethyl)propoxy]methyl-2-nitroimidazole] | 1.7 | 0.08 | 40 (≈ 162 mM) | -1.33 | -1.24 | -1.43 | – | 40 (≈ 162 mM) | hypoxic cell radiosensitization effect compared with misonidazole [6]: about the same degree of hypoxic cell radiosensitization effect as misonidazole
O=[N+]([O-])c1nccn1CO[C@@H](CO)[C@H](O)CO [Compound (4)] | – | – | – | – | – | – | – | – | LD50 at 336 h [5, 13]: 5900 mg/kg
O=[N+]([O-])c1nccn1CO[C@@H](CO)[C@@H](O)CO [SS isomer, (1'S,2'S)-1-[(2', 3'-dihydroxy-1'-hydroxymethyl)propoxy]methyl-2-nitroimidazole] | 1.8 | 0.07 | 820 (≈ 3320 mM) | -1.55 | -1.51 | -1.59 | remarkably larger than that of SR-RS racemate | 850 (≈ 3440 mM) | safety compared with other optically active isomers [7]: better safety than other optically active isomers; partitioning toward the octanol layer [1]: less partitioned toward the octanol layer; LD50 at 336 h [5]: 6000 mg/kg
O=[N+]([O-])c1nccn1CO[C@H](CO)[C@@H](O)CO [Compound (3)] | – | – | – | – | – | – | – | – | LD50 at 336 h [5, 13]: 5900 mg/kg
O=[N+]([O-])c1nccn1CO[C@H](CO)[C@@H](O)CO [RS isomer] | – | – | – | – | – | – | remarkably larger than that of SR-RS racemate | – | –
O=[N+]([O-])c1nccn1COC(CO)C(O)CO (single isomer, unassigned) [RS or SR isomer (rotation(-))] | 1.7 | 0.08 | – | – | – | – | – | – | partition coefficient ([1]; pH 7.4, 20° C.): 0.053; partition coefficient at 0.7 times the solubility in octanol ([1]; 24 hours, 0.7 times): 0.058; partition coefficient at 1.4 times the solubility in octanol ([1]; 24 hours, 1.4 times): 0.048; Solubility in physiological saline ([4]; physiological saline): 0.06 g/ml
COCC(O)Cn1ccnc1[N+](=O)[O-] (stereo not drawn) [Misonidazole, reference compound] | – | – | – | -0.409 | -0.397 | -0.423 | – | – | –
O=[N+]([O-])c1nccn1CO[C@@H](CO)[C@H](O)CO [SR isomer] | – | – | – | – | – | – | remarkably larger than that of SR-RS racemate | – | –
